Experimental data from the supplement of paper PMC11061612.

How the values were obtained:
[1] = test system: OVCAR-4 (Ovarian Carcinoma); assay: combination Emax (second highest fraction inhibited in the dose matrix, 72 h); higher = more inhibition; extreme values may be limits of the assay
Procedure, shortened: (§1)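 After 24 hours at 37°C and 5% CO2 in 1536-well plates, cells in DMEM/F12 or RPMI plus 10% FBS received two-drug dose matrices for 72 hours. Viability came from CellTiter-Glo 2.0 luminescence and was scaled as inhibition, anchored at 0 by vehicle wells and at 1 by blank wells. Combination Emax is taken as the second-highest inhibition in the matrix, and Bliss excess as the observed combination effect less EA + EB − EA·EB, with EA and EB the single-agent effects.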

[2] = test system: RF-48 (B-Cell Non-Hodgkin's Lymphoma); assay: as above
Procedure, shortened: as §1

UACC-62 (Melanoma) = assay: as above
Procedure, shortened: as §1

[3] = test system: NCI-H727 (Other Solid Carcinomas); assay: as above
Procedure, shortened: as §1

ACHN (Kidney Carcinoma) = assay: as above
Procedure, shortened: as §1

[4] = test system: NCI-H358 (Lung Adenocarcinoma); assay: as above
Procedure, shortened: as §1

NB69 (Neuroblastoma) = assay: as above
Procedure, shortened: as §1

[5] = test system: KYSE-450 (Esophageal Squamous Cell Carcinoma); assay: as above
Procedure, shortened: as §1

[6] = test system: NCI-H1915 (Non-Small Cell Lung Carcinoma); assay: as above
Procedure, shortened: as §1

[7] = test system: HOP-62 (Lung Adenocarcinoma); assay: as above
Procedure, shortened: as §1

[8] = test system: TE-1 (Esophageal Squamous Cell Carcinoma); assay: as above
Procedure, shortened: as §1

[9] = test system: OE19 (Esophageal Adenocarcinoma); assay: as above
Procedure, shortened: as §1

[10] = test system: Hs-766T (Pancreatic Carcinoma); assay: as above
Procedure, shortened: as §1

EW-24 (Ewing's Sarcoma) = assay: as above
Procedure, shortened: as §1

[11] = test system: HGC-27 (Gastric Carcinoma); assay: as above
Procedure, shortened: as §1

[12] = test system: SCC-15 (Oral Cavity Carcinoma); assay: as above
Procedure, shortened: as §1

[13] = test system: KMOE-2 (Acute Myeloid Leukemia); assay: as above
Procedure, shortened: as §1

[14] = test system: EoL-1-cell (Acute Myeloid Leukemia); assay: as above
Procedure, shortened: as §1

[15] = test system: KARPAS-299 (T-Cell Non-Hodgkin's Lymphoma); assay: as above
Procedure, shortened: as §1

D-263MG (Glioblastoma) = assay: Bliss excess, mean over the matrix (fraction); higher = more synergy;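 also: after 72 h of two-drug dosing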
Procedure, shortened: as §1

Row | Structure (SMILES) | combination Emax [1] | combination Emax [2] | combination Emax (UACC-62 (Melanoma)) | combination Emax [3] | combination Emax (ACHN (Kidney Carcinoma)) | combination Emax [4] | combination Emax (NB69 (Neuroblastoma)) | combination Emax [5] | combination Emax [6] | combination Emax [7] | combination Emax [8] | combination Emax [9] | combination Emax [10] | combination Emax (EW-24 (Ewing's Sarcoma)) | combination Emax [11] | combination Emax [12] | combination Emax [13] | combination Emax [14] | combination Emax [15] | Bliss excess (D-263MG (Glioblastoma))
1 | Cc1c2c(nn1C)CSCc1cc(n(C)n1)CSc1cc(c3ccccc3c1)OCCCc1c(C(=O)O)n(C)c3c-2c(Cl)ccc13 [AZD5991] + CCN(CCO)CCCOc1ccc2c(Nc3cc(CC(=O)Nc4cccc(F)c4)[nH]n3)ncnc2c1 [AZD2811] (first compound max 1 µM, 7x7, partner max 1 µM) | 0.506 | 0.262 | 0.887 | 0.286 | 0.27 | 0.403 | 0.878 | 0.54 | 0.294 | 0.446 | 0.676 | 0.937 | 0.346 | 0.383 | 1 | 0.307 | 0.759 | 1 | 0.987 | 0.122
2 | Cc1c2c(nn1C)CSCc1cc(n(C)n1)CSc1cc(c3ccccc3c1)OCCCc1c(C(=O)O)n(C)c3c-2c(Cl)ccc13 [AZD5991] + C[C@@H]1COCCN1C2=NC(=NC(=C2)C3(CC3)[S@](=N)(=O)C)C4=C5C=CNC5=NC=C4 [AZD6738] (first compound max 1 µM, 7x7, partner max 10 µM) | 0.713 | 0.545 | 0.939 | 0.412 | 0.948 | 0.632 | 0.967 | 0.55 | 0.504 | 0.784 | 0.747 | 0.746 | 0.574 | 0.53 | 0.849 | 0.561 | 0.873 | 1 | 1 | -0.0023
3 | Cc1c2c(nn1C)CSCc1cc(n(C)n1)CSc1cc(c3ccccc3c1)OCCCc1c(C(=O)O)n(C)c3c-2c(Cl)ccc13 [AZD5991] + C[C@@H](Nc1cc(F)cc(F)c1)c1cc(C(=O)N(C)C)cc2c(=O)cc(N3CCOCC3)oc12 [AZD8186] (first compound max 1 µM, 7x7, partner max 3 µM) | 0.288 | 0.365 | 0.934 | 0.274 | 0.342 | 0.282 | 0.894 | 0.234 | 0.184 | 0.281 | 0.589 | 0.49 | 0.45 | 0.291 | 0.691 | 0.322 | 0.644 | 1 | 0.957 | 0.0849
4 | Cc1c2c(nn1C)CSCc1cc(n(C)n1)CSc1cc(c3ccccc3c1)OCCCc1c(C(=O)O)n(C)c3c-2c(Cl)ccc13 [AZD5991] + Cc1cc2ncnn2cc1Nc1ncc2c(n1)n(C1CCOCC1)c(=O)n2C [AZD7648] (first compound max 1 µM, 7x7, partner max 10 µM) | 0.255 | 0.262 | 0.859 | 0.277 | 0.246 | 0.331 | 0.779 | 0.268 | 0.3 | 0.281 | 0.599 | 0.424 | 0.398 | 0.258 | 0.603 | 0.25 | 0.74 | 1 | 1 | 0.0046
5 | Cc1c2c(nn1C)CSCc1cc(n(C)n1)CSc1cc(c3ccccc3c1)OCCCc1c(C(=O)O)n(C)c3c-2c(Cl)ccc13 [AZD5991] + Cn1cnc2c(F)c(Nc3ccc(Br)cc3Cl)c(C(=O)NOCCO)cc21 [Selumetinib] (first compound max 1 µM, 7x7, partner max 3 µM) | 0.376 | 0.21 | 0.998 | 0.65 | 0.4 | 0.485 | 0.982 | 0.331 | 0.568 | 0.426 | 0.655 | 0.49 | 0.595 | 0.214 | 0.306 | 0.322 | 1 | 1 | 0.992 | -0.0318
6 | C[C@@H]1COCCN1c1cc(C2([S@](C)(=N)=O)CC2)nc(-c2ccnc3[nH]ccc23)n1 [AZD6738] + O=C(c1cc(Cc2n[nH]c(=O)c3ccccc23)ccc1F)N1CCN(C(=O)C2CC2)CC1 [Olaparib] (first compound max 10 µM, 7x7, partner max 10 µM) | 0.664 | 0.56 | 0.509 | 0.384 | 0.988 | 0.544 | 0.94 | 0.608 | 0.557 | 0.498 | 0.319 | 0.55 | 0.554 | 0.567 | 0.902 | 0.587 | 0.616 | 0.992 | 0.98 | 0.0604
7 | NC1(C(=O)N[C@@H](CCO)c2ccc(Cl)cc2)CCN(c2ncnc3[nH]ccc23)CC1 [Capivasertib] + CC(=O)c1c(C)c2cnc(Nc3ccc(N4CCNCC4)cn3)nc2n(C2CCCC2)c1=O [Palbociclib] (first compound max 10 µM, 7x7, partner max 10 µM) | 0.168 | 0.42 | 0.492 | 0.507 | 0.658 | 0.436 | 0.726 | 0.351 | 0.491 | 0.572 | 0.204 | 0.523 | 0.36 | 0.495 | 0.874 | 0.35 | 0.541 | 0.858 | 0.479 | 0.0117
8 | NC1(C(=O)N[C@@H](CCO)c2ccc(Cl)cc2)CCN(c2ncnc3[nH]ccc23)CC1 [Capivasertib] + CC(C)n1c(=O)n(C)c2cnc3cc(F)c(-c4ccc(OCCCN5CCCCC5)nc4)cc3c21 [AZD1390] (first compound max 10 µM, 7x7, partner max 0.3 µM) | 0.162 | 0.44 | 0.572 | 0.35 | 0.185 | 0.374 | 0.341 | 0.306 | 0.287 | 0.374 | 0.153 | 0.346 | 0.209 | 0.407 | 0.852 | 0.227 | 0.33 | 0.874 | 0.376 | -0.0713
9 | NC1(C(=O)N[C@@H](CCO)c2ccc(Cl)cc2)CCN(c2ncnc3[nH]ccc23)CC1 [Capivasertib] + CCN(CCO)CCCOc1ccc2c(Nc3cc(CC(=O)Nc4cccc(F)c4)[nH]n3)ncnc2c1 [AZD2811] (first compound max 10 µM, 7x7, partner max 1 µM) | 0.323 | 0.534 | 0.556 | 0.418 | 0.355 | 0.394 | 0.679 | 0.414 | 0.334 | 0.483 | 0.383 | 0.847 | 0.23 | 0.659 | 0.939 | 0.334 | 0.489 | 1 | 0.337 | 0.0163
10 | NC1(C(=O)N[C@@H](CCO)c2ccc(Cl)cc2)CCN(c2ncnc3[nH]ccc23)CC1 [Capivasertib] + COc1nnc2ccc(N3CCC(c4ccc(OCCN5CCN(C)C(=O)[C@H]5C)cc4)CC3)nn12 [AZD5153] (first compound max 10 µM, 7x7, partner max 1 µM) | 0.398 | 0.474 | 0.56 | 0.434 | 0.672 | 0.585 | 0.91 | 0.324 | 0.588 | 0.648 | 0.485 | 0.656 | 0.457 | 0.756 | 0.972 | 0.508 | 0.831 | 1 | 0.741 | 0.0459
11 | NC1(C(=O)N[C@@H](CCO)c2ccc(Cl)cc2)CCN(c2ncnc3[nH]ccc23)CC1 [Capivasertib] + C[C@@H]1COCCN1C2=NC(=NC(=C2)C3(CC3)[S@](=N)(=O)C)C4=C5C=CNC5=NC=C4 [AZD6738] (first compound max 10 µM, 7x7, partner max 10 µM) | 0.707 | 0.627 | 0.568 | 0.58 | 0.856 | 0.554 | 0.849 | 0.452 | 0.531 | 0.652 | 0.449 | 0.698 | 0.437 | 0.786 | 0.923 | 0.601 | 0.618 | 1 | 0.928 | -0.0685
12 | NC1(C(=O)N[C@@H](CCO)c2ccc(Cl)cc2)CCN(c2ncnc3[nH]ccc23)CC1 [Capivasertib] + Cn1cnc2c(F)c(Nc3ccc(Br)cc3Cl)c(C(=O)NOCCO)cc21 [Selumetinib] (first compound max 10 µM, 7x7, partner max 10 µM) | 0.338 | 0.456 | 0.908 | 0.729 | 0.49 | 0.585 | 0.903 | 0.547 | 0.791 | 0.644 | 0.49 | 0.573 | 0.591 | 0.485 | 0.841 | 0.524 | 1 | 1 | 0.587 | 0.0028
13 | COc1cccc2c1C(=O)c1c(O)c3c(c(O)c1C2=O)C[C@@](O)(C(=O)CO)C[C@@H]3O[C@H]1C[C@H](N)[C@H](O)[C@H](C)O1 [Doxorubicin] + Cc1cc2ncnn2cc1Nc1ncc2c(n1)n(C1CCOCC1)c(=O)n2C [AZD7648] (first compound max 1 µM, 7x7, partner max 10 µM) | 0.451 | 0.836 | 0.935 | 0.147 | 0.913 | 0.821 | 0.91 | 0.801 | 0.486 | 0.619 | 0.736 | 0.514 | 0.43 | 0.719 | 0.928 | 0.329 | 0.911 | 1 | 0.941 | 0.032
